Each structure is given as a SMILES string.

Here are results for one compound from PMC6320874, “Inhibitory Effect of Naphthoquinone-Tryptophan Hybrid towards Aggregation of PAP f39 Semen Amyloid” (Molecules, 2018).

The target of assay [1] is T1, PAP f39 (PAP248-286) (Homo sapiens, UniProt P15309).
T1 construct: gene ACP3; synthetic 39-residue peptide fragment 248-286 (GL Biochem), N-terminal Gly, C-terminal Tyr, HFIP-pretreated monomer; 2L3H is only the docking structure of this peptide
T1 sequence (P15309 248-286): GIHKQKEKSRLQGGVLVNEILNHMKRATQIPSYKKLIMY
As to the kind of experiment: ThT fluorescence aggregation assay. Format: biochemical. The settings on record: PBS pH 7.3, 37 °C, 1200 rpm, 96 h; 0.44 mM PAP f39, 0.022 mM NQTrp; inhibition of fibril formation.

In assay [2] the target is T1, PAP f39 (PAP248-286). As to the kind of experiment: isothermal titration calorimetry. Format: binding. (Isothermal titration calorimetry measures the heat released or taken up as one component is titrated into another.)

Broadly, the Kd is the equilibrium constant for the complex coming apart. A high value points to lower affinity. Turning to `O=C1C=C(N[C@@H](Cc2c[nH]c3ccccc23)C(=O)O)C(=O)c2ccccc21` [NQTrp], the “% amyloid inhibition at 20:1 (PAP f39:NQTrp)” value at PAP f39 (PAP248-286) [1] is ~ 70%. At PAP f39 (PAP248-286) [2], this compound returned a Kd of 5.94 ± 1.26 µM.
